“Also recorded” adds a separate entry of the source. Counter-ions that a name gives are not always drawn.
What was measured:
Assay type in all cases: in vivo
[1] = tested on: field grown tomato plants; assay: Fruit set and phytotoxicity in field grown tomato plants; details: for Increase Over Control (%) of fruit set: 24 days; for Fruit Set Per Plant (After 24 days) / Phytotoxicity: 24 days after treatment; for Increase (%) of fruit set: initial to 24 days
Source text: To determine fruit set effects by compounds of this invention, field grown tomato plants were foliage sprayed with the cis-2,5-dimethylpyrrolidine salt of […], 9-cis-2,5-dimethyl-1-pyrrolidinyl-2-chlorofluorene-9-carboxylic acid, methyl ester, and the commercial plant growth regulant, MAINTAIN CF-125 (methyl-2-chloro-9hydroxyfluorene-9-carboxylate, manufactured by U.S. Borax and Chemical Corp.). Rates of application employed were 5, 25, and 100 ppm when the tomato plants were in the late blooming to early fruit setting stage. Untreated plants were included in the test as controls. Five plants were sprayed for each chemical treatment. The number of fruit set and the degree of phytotoxicity to the plants were determined 24 days after treatment.

[2] = tested on: "Walter" variety tomato plants; assay: Yield of "Walter" variety tomatoes, weekly harvest of mature red fruit; details: for Total Fruit / Total Fruit, % of Control: weeks 1-6
Source text: Compounds of this invention were further tested as tomato yield enhancers as follows:
"Walter" variety tomato plants, in the early flowering stage, were foliage sprayed at a rate of 68.8 liters/hectare with compounds of this invention, and with the commercial product, CF-125. Each plot consisted of 20 plants; the experimental design was a completed randomized block with three replications. A plot of untreated plants was included as a control. Marketable, mature red tomatoes were harvested weekly, beginning 5 weeks after treatment.

[3] = tested on: field grown tomato plants; assay: Overall yield and fruit size of field grown tomatoes; details: for tomato yield / fruit size, in words: 10, 50 and 500 ppm, Example 1 decrease at 500 ppm; for Fruit Size, Green (% of Control): control 104.0 g; for Fruit Size, Red (% of Control): control 105.5 g
Source text: This example illustrates the effects of compounds of this invention on overall yield of tomatoes. For the test, field grown tomato plants, when in the early flowering stage, were foliage sprayed with the particular compounds of the invention designated below, and with the commercial product CF-125 (Maintain), at rates of 10, 50 and 500 ppm. These rates correspond to applications of 3.69 g, 18.54 g and 185.4 g/hectare, respectively. Each treatment consisted of five plants; the experimental design was a complete randomized block with three replications. A block of untreated plants was included as the control. The fruit was harvested by hand and separated into […] ripe fruit and marketable green fruit.

soybean plants = assay: Soybean yield after foliar spray at early flowering stage; details: for Yield Improvement %: vs control
Source text: Two 50 cm rows of soybean plants at the early flowering stage were sprayed with 100 ppm or 500 ppm of the cis-2,5-dimethylpyrrolidine salt of 9-fluorenecarboxylic acid, using a spray volume of about 375 liters/hectare (40 gallons/acre). For comparison, other rows were sprayed with like concentrations of two known compounds as designated below. Also 2 untreated rows were maintained to serve as a control: each of the plots was weeded by hand as needed. At maturity, each plot was harvested and the yield was determined.

In the case of COC(=O)C1(N2[C@H](C)CC[C@@H]2C)c2ccccc2-c2ccc(Cl)cc21 (stereo partly drawn) [Example 8, 9-cis-2,5-dimethyl-1-pyrrolidinyl-2-chlorofluorene-9-carboxylic acid, methyl ester], the “Increase Over Control (%) of fruit set” value ([1]; 5 ppm) is reported as 36%, the “Fruit Set Per Plant (After 24 days)” value ([1]; 5 ppm) is reported as 19.6 and the Phytotoxicity ([1]; 5 ppm) is reported as 0. For the same compound, the “Fruit Set Per Plant (Initial)” value ([1]; 5 ppm) was 9.4, the “Increase (%) of fruit set” value ([1]; 5 ppm) was 109% and the “Increase Over Control (%) of fruit set” value ([1]; 25 ppm) was 9%. For the same compound, the “Fruit Set Per Plant (After 24 days)” value ([1]; 25 ppm) was 18.6, the Phytotoxicity ([1]; 25 ppm) was 0 and the “Fruit Set Per Plant (Initial)” value ([1]; 25 ppm) was 10.2. For the same compound, the “Increase (%) of fruit set” value ([1]; 25 ppm) was 82%, the “Increase Over Control (%) of fruit set” value ([1]; 100 ppm) was -23% and the “Fruit Set Per Plant (After 24 days)” value ([1]; 100 ppm) was 15.6. The “Fruit Set Per Plant (Initial)” value ([1]; 100 ppm) was 10.4, the “Increase (%) of fruit set” value ([1]; 100 ppm) was 50% and the “increased tomato yields above the yield of control plots” value ([2]; 5-10 ppm) was 39-80%. The “Fruit Yield (kg/plot)” value ([2]; 5 ppm) was 32.8 kg/plot, the “Total Yield Wt. % of Control” value ([2]; 5 ppm) was 139.0 % of Control and the “Fruit harvested, Harvest Time (Week) 1” value ([2]; 5 ppm) was 11. The “Fruit harvested, Harvest Time (Week) 2” value ([2]; 5 ppm) was 109, the “Fruit harvested, Harvest Time (Week) 3” value ([2]; 5 ppm) was 103 and the “Fruit harvested, Harvest Time (Week) 4” value ([2]; 5 ppm) was 168. The “Fruit harvested, Harvest Time (Week) 5” value ([2]; 5 ppm) was 208, the “Fruit harvested, Harvest Time (Week) 6” value ([2]; 5 ppm) was 286 and the “Total Fruit” value ([2]; 5 ppm) was 885. For the same compound, the “Total Fruit, % of Control” value ([2]; 5 ppm) was 154 % of Control, the “Fruit Yield (kg/plot)” value ([2]; 10 ppm) was 42.6 kg/plot and the “Total Yield Wt. % of Control” value ([2]; 10 ppm) was 180.5 % of Control. The “Fruit harvested, Harvest Time (Week) 1” value ([2]; 10 ppm) was 13, the “Fruit harvested, Harvest Time (Week) 2” value ([2]; 10 ppm) was 123 and the “Fruit harvested, Harvest Time (Week) 3” value ([2]; 10 ppm) was 126. The “Fruit harvested, Harvest Time (Week) 4” value ([2]; 10 ppm) was 240, the “Fruit harvested, Harvest Time (Week) 5” value ([2]; 10 ppm) was 306 and the “Fruit harvested, Harvest Time (Week) 6” value ([2]; 10 ppm) was 296. The “Total Fruit” value ([2]; 10 ppm) was 1104, the “Total Fruit, % of Control” value ([2]; 10 ppm) was 192 % of Control and the “Fruit Yield (kg/plot)” value ([2]; 50 ppm) was 15.4 kg/plot. The “Total Yield Wt. % of Control” value ([2]; 50 ppm) was 65.3 % of Control, the “Fruit harvested, Harvest Time (Week) 1” value ([2]; 50 ppm) was 34 and the “Fruit harvested, Harvest Time (Week) 2” value ([2]; 50 ppm) was 150. For the same compound, the “Fruit harvested, Harvest Time (Week) 3” value ([2]; 50 ppm) was 81, the “Fruit harvested, Harvest Time (Week) 4” value ([2]; 50 ppm) was 25 and the “Fruit harvested, Harvest Time (Week) 5” value ([2]; 50 ppm) was 9. For the same compound, the “Fruit harvested, Harvest Time (Week) 6” value ([2]; 50 ppm) was 100, the “Total Fruit” value ([2]; 50 ppm) was 399 and the “Total Fruit, % of Control” value ([2]; 50 ppm) was 69 % of Control. The “tomato yield / fruit size, in words” value [3] was “became inhibitory above the 50 ppm rate”, the “Fruit Yield, Green (% of Control)” value ([3]; 10 ppm) was 64 % of Control and the “Fruit Yield, Red (% of Control)” value ([3]; 10 ppm) was 161 % of Control. For the same compound, the “Total Yield (% of Control)” value ([3]; 10 ppm) was 97 % of Control, the “yield of red fruit over the control yield” value ([3]; 10 ppm) was 61% and the “Fruit Size, Green (% of Control)” value ([3]; 10 ppm) was 93 % of Control. For the same compound, the “Fruit Size, Red (% of Control)” value ([3]; 10 ppm) was 82 % of Control, the “Fruit Yield, Green (% of Control)” value ([3]; 50 ppm) was 26 % of Control and the “Fruit Yield, Red (% of Control)” value ([3]; 50 ppm) was 93 % of Control. The “Total Yield (% of Control)” value ([3]; 50 ppm) was 49 % of Control, the “Fruit Size, Green (% of Control)” value ([3]; 50 ppm) was 46 % of Control and the “Fruit Size, Red (% of Control)” value ([3]; 50 ppm) was 95 % of Control. The “Fruit Yield, Green (% of Control)” value ([3]; 500 ppm) was 0 % of Control, the “Fruit Yield, Red (% of Control)” value ([3]; 500 ppm) was 76 % of Control and the “Total Yield (% of Control)” value ([3]; 500 ppm) was 26 % of Control. For the same compound, the “Fruit Size, Green (% of Control)” value ([3]; 500 ppm) was 0 % of Control and the “Fruit Size, Red (% of Control)” value ([3]; 500 ppm) was 67 % of Control.

In the case of C[C@@H]1CC[C@H](C)N1.O=C(O)C1c2ccccc2-c2ccccc21 [Example 15, Cis-2,5-dimethylpyrrolidine salt of 9-fluorenecarboxylic acid], the “soybean yield, in words” value (soybean plants; particularly at 500 ppm, over untreated control and fluorenecarboxylic acids) is reported as “significantly enhances soybean yield over the untreated control plot and over plots treated with known morphactins”.

In the case of O=C(O)c1cccc2c1Cc1ccccc1-2 [1-fluorenecarboxylic acid], the “Yield (Kilograms) × 10^2” value (soybean plants; 100 ppm) is reported as 17.16 Kilograms × 10^2, the “Yield Improvement %” value (soybean plants; 100 ppm) is reported as -2.7% and the “Yield (Kilograms) × 10^2” value (soybean plants; 500 ppm) is reported as 17.34 Kilograms × 10^2. For the same compound, the “Yield Improvement %” value (soybean plants; 500 ppm) was -1.5%.

O=C(O)C1c2ccccc2-c2ccccc21 [9-fluorenecarboxylic acid] was tested, and the “Yield (Kilograms) × 10^2” value (soybean plants; 100 ppm) was 18.93 Kilograms × 10^2, the “Yield Improvement %” value (soybean plants; 100 ppm) was 7.3% and the “Yield (Kilograms) × 10^2” value (soybean plants; 500 ppm) was 19.02 Kilograms × 10^2. The “Yield Improvement %” value (soybean plants; 500 ppm) was 7.5%.

With O=C(O)c1cccc2c1Cc1ccccc1-2 [Example 3, 2,6-Dimethyl piperidine salt of fluorene-1-carboxylic acid] the “tomato yield / fruit size, in words” value [3] was “increased the yield of red fruit at all rates of application; also recorded: increasing the size of the fruit”, the “Fruit Yield, Green (% of Control)” value ([3]; 10 ppm) was 45 % of Control and the “Fruit Yield, Red (% of Control)” value ([3]; 10 ppm) was 119 % of Control. For the same compound, the “Total Yield (% of Control)” value ([3]; 10 ppm) was 70 % of Control, the “Fruit Size, Green (% of Control)” value ([3]; 10 ppm) was 137 % of Control and the “Fruit Size, Red (% of Control)” value ([3]; 10 ppm) was 161 % of Control. The “Fruit Yield, Green (% of Control)” value ([3]; 50 ppm) was 69 % of Control, the “Fruit Yield, Red (% of Control)” value ([3]; 50 ppm) was 122 % of Control and the “Total Yield (% of Control)” value ([3]; 50 ppm) was 128 % of Control. For the same compound, the “Fruit Size, Green (% of Control)” value ([3]; 50 ppm) was 101 % of Control, the “Fruit Size, Red (% of Control)” value ([3]; 50 ppm) was 165 % of Control and the “Fruit Yield, Green (% of Control)” value ([3]; 500 ppm) was 86 % of Control. The “Fruit Yield, Red (% of Control)” value ([3]; 500 ppm) was 127 % of Control, the “Total Yield (% of Control)” value ([3]; 500 ppm) was 59 % of Control and the “Fruit Size, Green (% of Control)” value ([3]; 500 ppm) was 83 % of Control. The “Fruit Size, Red (% of Control)” value ([3]; 500 ppm) was 127 % of Control.

— US4461899A, “Fluorenecarboxylic acid derivatives” (Diamond Shamrock Chemicals Company, priority 1982, dated 1984)
